Experimental data: US5538968A, “Geneserine derivatives processes as cholinesterase inhibitors” (priority 1991, dated 1996)
Counter-ions that a name gives are not always drawn.

System: acetylcholinesterase (AchE) in the brain
Test: Time course of inhibition of brain acetylcholinesterase (AchE) in the rat after s.c. administration (Ellman acetylthiocholine method, ex vivo)
Design: species or system rat (male Crl:CD (SD) BR)
Settings: for Time of peak effect on brain AchE: at doses producing effects comparable to 9 mg/kg CHF 2060
Experimental: 1. Acetylcholinesterase inhibition
The time course of inhibition of acetylcholinesterase (AchE) in the brain was assessed in male Crl:CD (SD) BR rats (Charles River Italia), weighing between 150-250 g.
The test substances were administered by s.c. route, dissolved in 2 ml/kg of sterile saline. 9 animals/group/time were used.
Controls received the vehicle only.
At various intervals (10-60-120-240 min) after administration the rats were sacrificed by decapitation and the brains were rapidly removed, weighed and immediately placed in 1 ml of phosphate buffer 0.1M, pH 8.0, added with 1% Triton 100 (Merck).
After homogenization and centrifugation at 19943 g for 15 min at 4° C. the surnatant was separated and used for the determination of AchE activity according to the acetyltiocholine method described by Ellmann (Ellman G. L. et al., Biochem. Pharmacol. 7, 88, 1961).
The activity concentrations obtained (U/l surnatant) were individually corrected for the brain weight.

CCCCCCCNC(=O)Oc1ccc2c(c1)C1(C)CCN(C)OC1N2C [CHF 2060, N-heptyl-geneserine L-tartrate]
AUC 0-4 h of inhibition of brain acetylcholinesterase (9 mg/kg s.c.): 127 % inib. hr | Max % inhib. of brain acetylcholinesterase (9 mg/kg s.c.): 45% | T max (time of the maximal inhibition) (9 mg/kg s.c.): ≥ 240 min | Brain acetylcholinesterase % inhib. (9 mg/kg s.c., 10 min): 11% | Brain acetylcholinesterase activity, U/1 surn. (9 mg/kg s.c., 10 min): 3094 ± 197 U/1 surn. | Brain acetylcholinesterase activity, U/1 surn. (9 mg/kg s.c., 60 min): 2294 ± 150 U/1 surn. | Brain acetylcholinesterase % inhib. (9 mg/kg s.c., 60 min, ** P < 0.01): 29% | Brain acetylcholinesterase activity, U/1 surn. (9 mg/kg s.c., 120 min): 2205 ± 171 U/1 surn. | Brain acetylcholinesterase % inhib. (9 mg/kg s.c., 120 min, ** P < 0.01): 33% | Brain acetylcholinesterase activity, U/1 surn. (9 mg/kg s.c., 240 min): 1565 ± 80 U/1 surn. | Brain acetylcholinesterase % inhib. (9 mg/kg s.c., 240 min, ** P < 0.01): 45% | AUC 0-4 h of inhibition of brain acetylcholinesterase (27 mg/kg s.c.): 190 % inib. hr | Max % inhib. of brain acetylcholinesterase (27 mg/kg s.c.): 68% | T max (time of the maximal inhibition) (27 mg/kg s.c.): ≥ 240 min | Factor of increase of effect between 120 and 240 min (27 mg/kg s.c., 120 to 240 min): 1.4 | Brain acetylcholinesterase % inhib. (27 mg/kg s.c., 10 min): 12% | Brain acetylcholinesterase activity, U/1 surn. (27 mg/kg s.c., 10 min): 3070 ± 117 U/1 surn. | Brain acetylcholinesterase activity, U/1 surn. (27 mg/kg s.c., 60 min): 1782 ± 164 U/1 surn. | Brain acetylcholinesterase % inhib. (27 mg/kg s.c., 60 min, ** P < 0.01): 45% | Brain acetylcholinesterase activity, U/1 surn. (27 mg/kg s.c., 120 min): 1629 ± 38 U/1 surn. | Brain acetylcholinesterase % inhib. (27 mg/kg s.c., 120 min, ** P < 0.01): 50% | Brain acetylcholinesterase activity, U/1 surn. (27 mg/kg s.c., 240 min): 914 ± 26 U/1 surn. | Brain acetylcholinesterase % inhib. (27 mg/kg s.c., 240 min, ** P < 0.01): 68% | Inhibition of brain AchE (qualitative) (s.c.): long-lasting inhibitor of brain AchE | Course of effect during the 4 hrs following the treatment (s.c., 0-4 hrs): increase gradually during the 4 hrs following the treatment | Duration of action compared with Heptyl physostigmine tartrate (s.c., 27 mg/kg vs 1 mg/kg HPYS, similar AUC): more sustained action | Significant inhibition of brain AchE (s.c., 1 hr after administration (9 and 27 mg/kg), P<0,001): 29-45% | Factor of increase of effect within 4 hrs in respect to the first hour (s.c., 4 hrs vs 1 hr (9 and 27 mg/kg)): 1.5-1.6

CNC(=O)Oc1ccc2c(c1)C1(C)CCN(C)OC1N2C (stereo not drawn) [Geneserine tartrate]
AUC 0-4 h of inhibition of brain acetylcholinesterase (3 mg/kg s.c.): 133 % inib. hr | Max % inhib. of brain acetylcholinesterase (3 mg/kg s.c.): 53-57% | T max (time of the maximal inhibition) (3 mg/kg s.c.): 10 to 60 min | Brain acetylcholinesterase activity, U/1 surn. (3 mg/kg s.c., 10 min): 1447 ± 100 U/1 surn. | Brain acetylcholinesterase % inhib. (3 mg/kg s.c., 10 min, ** P < 0.01): 53% | Brain acetylcholinesterase activity, U/1 surn. (3 mg/kg s.c., 60 min): 1231 ± 86 U/1 surn. | Brain acetylcholinesterase % inhib. (3 mg/kg s.c., 60 min, ** P < 0.01): 57% | Brain acetylcholinesterase activity, U/1 surn. (3 mg/kg s.c., 120 min): 2162 ± 134 U/1 surn. | Brain acetylcholinesterase % inhib. (3 mg/kg s.c., 120 min, ** P < 0.01): 28% | Brain acetylcholinesterase % inhib. (3 mg/kg s.c., 240 min): 12% | Brain acetylcholinesterase activity, U/1 surn. (3 mg/kg s.c., 240 min): 2139 ± 208 U/1 surn. | Factor of reduction of effect 120 min. after the treatment (s.c., 120 min vs peak): 1.5-2 | Effect on brain AchE after 240 min. (s.c.): disappears after 240 min | Time of peak effect on brain AchE (s.c.): 10 to 60 min | Onset of effect compared with CHF 2060 (s.c., vs 9 mg/kg CHF 2060, comparable AUC and maximum inhibition): more rapid effect

CCCCCCCNC(=O)Oc1ccc2c(c1)[C@]1(C)CCN(C)[C@@H]1N2C [Heptyl physostigmine tartrate]
AUC 0-4 h of inhibition of brain acetylcholinesterase (0.3 mg/kg s.c.): 94 % inib. hr | AUC 0-4 h of inhibition of brain acetylcholinesterase (1 mg/kg s.c.): 178 % inib. hr | Max % inhib. of brain acetylcholinesterase (1 mg/kg s.c.): 54% | T max (time of the maximal inhibition) (1 mg/kg s.c.): 60 min | Factor of reduction of effect between 120 and 240 min (1 mg/kg s.c., 120 to 240 min): 1.4 | Brain acetylcholinesterase activity, U/1 surn. (1 mg/kg s.c., 10 min): 2246 ± 115 U/1 surn. | Brain acetylcholinesterase % inhib. (1 mg/kg s.c., 10 min, ** P < 0.01): 29% | Brain acetylcholinesterase activity, U/1 surn. (1 mg/kg s.c., 60 min): 1166 ± 85 U/1 surn. | Brain acetylcholinesterase % inhib. (1 mg/kg s.c., 60 min, ** P < 0.01): 54% | Brain acetylcholinesterase activity, U/1 surn. (1 mg/kg s.c., 120 min): 1506 ± 115 U/1 surn. | Brain acetylcholinesterase % inhib. (1 mg/kg s.c., 120 min, ** P < 0.01): 52% | Brain acetylcholinesterase activity, U/1 surn. (1 mg/kg s.c., 240 min): 1867 ± 52 U/1 surn. | Brain acetylcholinesterase % inhib. (1 mg/kg s.c., 240 min, ** P < 0.01): 36%

CNC(=O)Oc1ccc2c(c1)[C@]1(C)CCN(C)[C@@H]1N2C [Physostigmine]
AUC 0-4 h of inhibition of brain acetylcholinesterase (0.4 mg/kg s.c.): 135 % inib. hr | Brain acetylcholinesterase activity, U/1 surn. (0.4 mg/kg s.c., 10 min): 1368 ± 125 U/1 surn. | Brain acetylcholinesterase activity, U/1 surn. (0.4 mg/kg s.c., 60 min): 1483 ± 148 U/1 surn. | Brain acetylcholinesterase activity, U/1 surn. (0.4 mg/kg s.c., 120 min): 1829 ± 94 U/1 surn. | Brain acetylcholinesterase activity, U/1 surn. (0.4 mg/kg s.c., 240 min): 2234 ± 151 U/1 surn. | Effect on brain AchE after 240 min. (s.c.): disappears after 240 min | Time of peak effect on brain AchE (s.c.): 10 to 60 min
